The source of these data is publication PMC6328428, “Synthesis, Urease Inhibition and Molecular Modelling Studies of Novel Derivatives of the Naturally Occurring β-Amyrenone” (Natural Products and Bioprospecting, 2018).

By IC50 is commonly meant the concentration that gives 50% inhibition. A high value points to weaker potency. For orientation: melting point means the temperature, or range, at which the solid turns liquid.

Data set [1] addresses T1, Jack bean Urease (Canavalia ensiformis, UniProt P07374).
T1 construct: purchased Sigma
Nature of the data set: biochemical. As for the experimental part: Urease activity was obtained by measuring ammonia production using the indophenol method as described by Bankeu et al., (2017). […] Reaction mixtures with 25 μL of enzyme (Jack bean Urease bought from Sigma) solution and 55 μL of buffers containing 100 mM urea were incubated with 5 μL of compounds 1—4 (1 mM concentration) at 30 °C for 15 min in 96-well plates. In fact, 45 μL each of phenol reagent (1% w/v phenol and 0.005% w/v sodium nitroprusside) and 70 μL of alkali reagent (0.5% w/v NaOH and 0.1% active chloride NaOCl) were added to each well. The absorbance at 630 nm was recorded after 50 min, using a microplate reader (Molecular Device, USA). All reactions were performed in triplicate in a final volume of 200 μL. The results (change in absorbance per min) were processed by using Soft Max Pro software (Molecular Device, USA). All the assays were performed at pH 8.2 (0.01 M K2HPO4·3H2O, 1 mM EDTA and 0.01 M LiCl). Percentage inhibitions were calculated from the formula (Eq. 1):1 Urease inhibition%=100-ODtest/ODcontrol×100 where OD stands for optical density.
Urease inhibition percentages were used to determine the concentration that inhibit 50% of urease activity (IC50) using GraphPad Prism 5.0, USA.
The resulting data are shown as mean ± SD of three independent assays. One way one analysis of variance (ANOVA) was carried out for the determination of difference between groups (GraphPad Prism 5.0, USA). […] was considered as significant.

T1 sequence (P07374 whole entry, looked up): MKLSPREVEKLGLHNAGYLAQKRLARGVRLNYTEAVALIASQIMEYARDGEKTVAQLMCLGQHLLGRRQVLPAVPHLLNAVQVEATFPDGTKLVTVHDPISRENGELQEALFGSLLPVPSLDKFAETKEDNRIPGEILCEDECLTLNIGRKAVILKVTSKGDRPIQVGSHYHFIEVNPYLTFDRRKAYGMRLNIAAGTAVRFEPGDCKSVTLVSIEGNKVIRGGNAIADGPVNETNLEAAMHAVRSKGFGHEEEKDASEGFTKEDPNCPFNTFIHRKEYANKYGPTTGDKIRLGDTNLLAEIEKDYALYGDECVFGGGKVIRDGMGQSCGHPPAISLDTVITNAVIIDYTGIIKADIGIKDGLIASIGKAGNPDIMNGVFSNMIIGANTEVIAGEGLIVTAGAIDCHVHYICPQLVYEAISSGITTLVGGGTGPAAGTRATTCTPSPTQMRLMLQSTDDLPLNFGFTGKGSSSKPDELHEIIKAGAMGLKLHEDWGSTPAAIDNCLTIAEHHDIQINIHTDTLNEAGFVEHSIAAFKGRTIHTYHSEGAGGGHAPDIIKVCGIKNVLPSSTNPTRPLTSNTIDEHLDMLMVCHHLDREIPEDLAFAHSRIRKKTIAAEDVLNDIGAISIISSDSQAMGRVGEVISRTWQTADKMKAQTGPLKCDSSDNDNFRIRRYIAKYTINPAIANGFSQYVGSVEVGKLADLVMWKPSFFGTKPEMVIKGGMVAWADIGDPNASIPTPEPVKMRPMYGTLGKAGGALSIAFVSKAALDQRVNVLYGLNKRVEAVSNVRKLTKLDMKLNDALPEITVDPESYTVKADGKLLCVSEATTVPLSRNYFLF

`COc1ccc2[nH]c3c(c2c1)C[C@]1(C)C2CC=C4[C@H]5CC(C)(C)CC[C@]5(C)CC[C@@]4(C)[C@]2(C)CC[C@H]1C3(C)C` (stereo partly drawn) [Compound 3, (4aR,6aS,6bR,8aR,15aR,17bS)-13-Methoxy-2,2,4a,6a,6b,9,9,15a-octamethyl-2,3,4,4a,5,6,6a,6b,7,8,8a,9,10,15,15a,15b,16,17b-octadecahydro-1H-chryseno[2,1-b]carbazole] showed an IC50 in data set [1] of 22.2 ± 0.9 µM.

In turn, `CC1(C)CC[C@]2(C)CC[C@]3(C)C(=CCC4[C@@]5(C)Cc6c([nH]c7ccccc67)C(C)(C)[C@@H]5CC[C@]43C)[C@H]2C1` (stereo partly drawn) [Compound 4, (4aR,6aS,6bR,8aR,15aR,17bS)-2,2,4a,6a,6b,9,9,15a-Octamethyl-2,3,4,4a,5,6,6a,6b,7,8,8a,9,10,15,15a,15b,16,17b-octadecahydro-1H-chryseno[2,1-b]carbazole] displayed an IC50 in data set [1] of 17.9 ± 0.45 µM.

Molecule `CC1(C)CC[C@]2(C)CC[C@]3(C)C(=CCC4[C@@]5(C)CCC(=O)C(C)(C)[C@@H]5CC[C@]43C)[C@H]2C1` (stereo partly drawn) [Compound 1, β-Amyrenone] came in with an IC50 in data set [1] of 14.5 ± 0.21 µM. This IC50 and that of the molecule before are within 1.5-fold of each other.

Turning to `CC1(C)CCC2(C)CCC3(C)C(=CCC4C5(C)CC/C(=N\Nc6ccc([N+](=O)[O-])cc6[N+](=O)[O-])C(C)(C)C5CCC43C)C2C1` (centres unmarked) [Compound 2, (E)-1-(2,4-Dinitrophenyl)-2-(4,4,6a,6b,8a,11,11,14b-octamethyl-1,4,4a,5,6,6a,6b,7,8,8a,9,10,11,12,12a,14,14a,14b-octadecahydropicen-3(2H)-ylidene)hydrazine], the melting point came out at 260 °C. Half-maximal inhibition in data set [1] (IC50) required 24.6 ± 0.17 µM.
